According to ChEMBL document CHEMBL1130942, “A combinatorial approach to chemical modification of subtilisin Bacillus lentus” (Bioorg Med Chem Lett, 1998):

Assays:
Assay type in all cases: ADME
[1] = Compound was tested for amidase rate in the presence of N62C fully characterised enzyme
[2] = Compound was tested for amidase rate in the presence of N62C screen enzyme
[3] = Compound was tested for amidase rate in the presence of S166C fully characterised enzyme
[4] = Compound was tested for amidase rate in the presence of S166C screen enzyme
[5] = Compound was tested for esterase rate in the presence of N62C fully characterised enzyme
[6] = Compound was tested for esterase rate in the presence of N62C screen enzyme
[7] = Compound was tested for esterase rate in the presence of S166C screen enzyme
[8] = Compound was tested for esterase rate in the presence of S166C fully characterised enzyme

Structure (SMILES)	k cat/Km [1]	k cat/Km [2]	k cat/Km [3]	k cat/Km [4]	k cat/Km [5]	k cat/Km [6]	k cat/Km [7]	k cat/Km [8]
COc1ccc(CSS(C)(=O)=O)cc1	93000 M⁻¹ s⁻¹	86000 M⁻¹ s⁻¹	68000 M⁻¹ s⁻¹	17000 M⁻¹ s⁻¹	7.87e+06 M⁻¹ s⁻¹	5.68e+06 M⁻¹ s⁻¹	1.746e+06 M⁻¹ s⁻¹	5.798e+06 M⁻¹ s⁻¹
CS(=O)(=O)SCc1ccc(C(=O)O)cc1	442000 M⁻¹ s⁻¹	74000 M⁻¹ s⁻¹	72000 M⁻¹ s⁻¹	16000 M⁻¹ s⁻¹	5.07e+07 M⁻¹ s⁻¹	7.68e+06 M⁻¹ s⁻¹	2.37e+06 M⁻¹ s⁻¹	1.146e+07 M⁻¹ s⁻¹
CS(=O)(=O)SCc1ccccc1	379000 M⁻¹ s⁻¹	207000 M⁻¹ s⁻¹	20000 M⁻¹ s⁻¹	10000 M⁻¹ s⁻¹	6.33e+06 M⁻¹ s⁻¹	6.51e+06 M⁻¹ s⁻¹	1.16e+06 M⁻¹ s⁻¹	4.92e+06 M⁻¹ s⁻¹
CS(=O)(=O)SCc1c(F)c(F)c(F)c(F)c1F [METHANETHIOSULFONIC ACID PENTAFLUOROPHENYLMETHYL ESTER]	198000 M⁻¹ s⁻¹	111000 M⁻¹ s⁻¹	67000 M⁻¹ s⁻¹	14000 M⁻¹ s⁻¹	1.426e+07 M⁻¹ s⁻¹	7.52e+06 M⁻¹ s⁻¹	784000 M⁻¹ s⁻¹	5.198e+06 M⁻¹ s⁻¹
